Laboratory results published in US6391921B1 (priority 2000, dated 2002).

Columns and labels:
RBL-2H3 mast cells = assay: IgE receptor/FcεRI-mediated mast cell degranulation (β-hexosaminidase release); format: cell-based, rat
Description: Monolayers of RBL-2H3 rat mast cells were sensitized with monoclonal anti-DNP IgE antibody (0.24 mg/ml) for 1 hour at 37° C. in a 48-well tissue culture plate. Unbound IgE was removed by washing the cells with phosphate buffered saline. After washing, PIPES-buffered saline containing 1 mM calcium chloride was added to the monolayers of the RBL-2H3 cells. The cells were challenged with 20 ng/ml DNP-BSA for 30 minutes at 37° C. The plate was centrifuged at 200 g for 10 minutes at 4° C. and supernatants were saved. […]
To study the effects of compound D-58, RBL-2H3 cells were incubated with compound D-58 at the indicated concentrations or vehicle for 1 hour prior to antigen challenge. Mast cell degranulation (β-hexosaminidase release, % of total) was assessed by measuring the β-hexosaminidase levels in cell free supernatants and Triton X-100 solubilized pellets using the formula: β-hexosaminidase release, % of total=100×(β-hexosaminidase level in supernatant/β-hexosaminidase level in supernatant+solubilized pellet). […]
In order to examine the effects of compound D-58 on IgE receptor/FcεRI-mediated mast cell activation and mediator release, RBL-2H3 mast cells were exposed to increasing concentrations of this ethanone or vehicle prior to challenge with antigen (DNP-BSA). […] Mast cell β-hexosaminidase release (FIG. 3A) and LTC4 release (FIG. 3B) were measured. […]

Balb/c mice = assay: Carrageenan air pouch model of acute inflammation, PGE2 release in vivo; details: 50 mg/kg i.p. twice before carrageenan challenge; 4 hours after challenge; FIG. 6
Description: The effects of compound D-58 on PGE2 release in vivo were examined using a well characterized air pouch mouse model of acute inflammation (ref 36). An acute inflammatory response was induced in the air pouches of mice by the injection of carrageenan, a sulfated polysaccharide obtained from the alga Chondrus crispus (ref 36).
Balb/c (6-8 weeks old male) mice were utilized for these experiments. To create an air pouch, mice were injected with 3 ml sterile air subcutaneously using a 30 gauge needle on days 0 and 3 as described previously (refs 30 and 31). Six days after the initial injection of air, mice were injected with 2 ml of 1% carrageenan into the subcutaneous air pouch.
In order to study the effect of compound D-58, a group of mice was injected with the drug i.p. 60 minutes and 30 minutes before the carrageenan challenge. Control mice were treated with vehicle alone. After 4 hours of challenge with carrageenan, mice were sacrificed and the contents of the air pouches were harvested by lavage with 2 ml cold saline. The recovered fluids were centrifuged at 250×g for 15 minutes at 4° C. Supernatants were saved at −80° C. for the estimation the of prostaglandin E2 contents. […]
The data points represent the mean±SEM values (n=4-5 mice). *p<0.05 compared to vehicle-treated controls was determined by Student's t test.

skh-1 mice = assay: UVB-irradiated skin edema (skinfold thickness); format: in vivo; details: 180 mJ/cm^2 UVB
Description: Mice (skh-1) were treated daily with 20 mg/kg i.p. bolus injections of compound D-58 from day −2 (i. e. 2 days prior to UVB exposure) until the termination of the experiment. Anesthetized mice received UVB radiations to a 2.0 cm^2 area on their dorsal surface. This area was painted either with the test compound (1.5 mg/cm^2) in drug receiving mice, or with vehicle in control mice 15 minutes before irradiation. The distance between UVB lamps and surface receiving irradiation was 20 cm. The final radiation dose received by skh-1 hairless mice was 180 mJ/cm^2 which is approximately four times higher than the minimal erythema dose (MED) (ref 29) in these mice. Skinfold thickness of the back of the mice was recorded prior to, and on each day after UVB exposure for five days with a digital thickness gauge (Mitutoyo Co., Plainfield, N.J.) which measures the skinfold thickness in a 0-10 mm range with an accuracy of 0.015 mm. […] For this purpose female, hairless, albino skh-1 mice were exposed to 180 mJ/cm^2 UVB light and their skinfold thickness, as a parameter of acute inflammation, was measured on days 1 through 5 following irradiation. […] The data points represent the mean±SEM values (n=5 mice). *p<0.05 and **p<0.001 compared to vehicle-treated UVB irradiated controls were determined by Student's t test.

`COc1ccc(CC(=O)c2c(O)cc(O)cc2O)cc1` [Compound D-58] was tested, and the “IgE/antigen induced mast cell degranulation (β-hexosaminidase)” value (RBL-2H3 mast cells; 1 hour prior to DNP-BSA challenge, FIG. 3A) was “inhibited”, the “mediator release induced by compound alone” value (RBL-2H3 mast cells; incubation without antigen challenge (data not shown)) was “did not induce mediator release” and the “decrease of PGE2 release into the air pouch” value (Balb/c mice) was “approximately 50%”. The “development of skin edema after UVB exposure” value (skh-1 mice; 20 mg/kg i.p. daily from day −2 plus 1.5 mg/cm^2 topical, FIG. 7) was “effectively inhibited” and the skinfold thickness (skh-1 mice; by 72 hours post irradiation) was “at baseline control levels”.
